In ChEMBL document CHEMBL1201862, “PubChem BioAssay data set” (2004):
The source made the active and inactive calls.

What was measured:
Streptokinase A = target: T1, Streptokinase A (Streptococcus pyogenes serotype M1, UniProt P10520); assay: S. pyogenes streptokinase expression inhibitors, potency, dose response, plasminogen activation absorbance, OD405 (AID 1914); format: functional, Streptococcus pyogenes M1 GAS;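 further: secreted streptokinase activity via plasminogen activation per viability signal from cell pellet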
T1 sequence (P10520 whole entry): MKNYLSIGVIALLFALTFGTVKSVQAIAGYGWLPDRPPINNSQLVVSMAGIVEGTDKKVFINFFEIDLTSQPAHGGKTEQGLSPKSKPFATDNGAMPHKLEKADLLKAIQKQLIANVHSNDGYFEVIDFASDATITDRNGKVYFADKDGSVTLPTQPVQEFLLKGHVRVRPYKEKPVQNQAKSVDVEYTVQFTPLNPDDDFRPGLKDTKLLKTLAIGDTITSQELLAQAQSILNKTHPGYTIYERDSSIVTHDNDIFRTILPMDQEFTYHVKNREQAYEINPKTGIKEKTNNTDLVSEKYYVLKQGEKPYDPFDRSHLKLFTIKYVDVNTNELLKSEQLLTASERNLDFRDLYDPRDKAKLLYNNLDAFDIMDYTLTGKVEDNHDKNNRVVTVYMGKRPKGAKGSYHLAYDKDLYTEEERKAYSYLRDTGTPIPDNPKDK

[1] = target: Glucose-6-phosphate 1-dehydrogenase (Homo sapiens, UniProt P11413); assay: human G6PD enzyme inhibitors, dose response, selectivity assay for P. falciparum G6PD inhibitor project, biochemical, fluorescence (AID 504792); format: functional
Sequence of Glucose-6-phosphate 1-dehydrogenase (P11413 whole entry): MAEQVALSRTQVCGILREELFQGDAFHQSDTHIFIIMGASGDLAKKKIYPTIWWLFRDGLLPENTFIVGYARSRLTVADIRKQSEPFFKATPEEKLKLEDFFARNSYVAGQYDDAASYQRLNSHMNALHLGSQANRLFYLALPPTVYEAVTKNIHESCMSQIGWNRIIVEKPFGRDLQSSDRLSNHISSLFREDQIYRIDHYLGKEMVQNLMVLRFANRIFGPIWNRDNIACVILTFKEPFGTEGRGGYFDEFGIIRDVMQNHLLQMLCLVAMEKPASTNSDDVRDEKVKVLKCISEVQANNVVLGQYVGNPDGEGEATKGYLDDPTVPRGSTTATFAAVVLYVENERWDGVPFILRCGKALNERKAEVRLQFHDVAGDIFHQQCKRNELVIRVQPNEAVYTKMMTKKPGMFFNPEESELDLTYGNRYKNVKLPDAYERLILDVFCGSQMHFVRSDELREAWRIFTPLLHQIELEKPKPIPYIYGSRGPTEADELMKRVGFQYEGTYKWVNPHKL

[2] = target: T2, Sentrin-specific protease 8 (Homo sapiens, UniProt Q96LD8); format: functional;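 further: luminescence read-out of SENP8 inhibition, dose-response confirmation following an ultra-high-throughput screen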
T2 sequence (Q96LD8 whole entry): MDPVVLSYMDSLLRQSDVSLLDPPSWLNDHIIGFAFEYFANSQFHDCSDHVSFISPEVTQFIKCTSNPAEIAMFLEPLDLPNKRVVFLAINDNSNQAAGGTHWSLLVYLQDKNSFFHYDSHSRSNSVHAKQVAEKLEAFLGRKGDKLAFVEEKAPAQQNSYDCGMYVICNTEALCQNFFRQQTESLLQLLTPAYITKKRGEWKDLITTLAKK

[3] = target: T3, Apoptotic protease-activating factor 1 (Homo sapiens, UniProt O14727); format: functional
T3 sequence (O14727 whole entry): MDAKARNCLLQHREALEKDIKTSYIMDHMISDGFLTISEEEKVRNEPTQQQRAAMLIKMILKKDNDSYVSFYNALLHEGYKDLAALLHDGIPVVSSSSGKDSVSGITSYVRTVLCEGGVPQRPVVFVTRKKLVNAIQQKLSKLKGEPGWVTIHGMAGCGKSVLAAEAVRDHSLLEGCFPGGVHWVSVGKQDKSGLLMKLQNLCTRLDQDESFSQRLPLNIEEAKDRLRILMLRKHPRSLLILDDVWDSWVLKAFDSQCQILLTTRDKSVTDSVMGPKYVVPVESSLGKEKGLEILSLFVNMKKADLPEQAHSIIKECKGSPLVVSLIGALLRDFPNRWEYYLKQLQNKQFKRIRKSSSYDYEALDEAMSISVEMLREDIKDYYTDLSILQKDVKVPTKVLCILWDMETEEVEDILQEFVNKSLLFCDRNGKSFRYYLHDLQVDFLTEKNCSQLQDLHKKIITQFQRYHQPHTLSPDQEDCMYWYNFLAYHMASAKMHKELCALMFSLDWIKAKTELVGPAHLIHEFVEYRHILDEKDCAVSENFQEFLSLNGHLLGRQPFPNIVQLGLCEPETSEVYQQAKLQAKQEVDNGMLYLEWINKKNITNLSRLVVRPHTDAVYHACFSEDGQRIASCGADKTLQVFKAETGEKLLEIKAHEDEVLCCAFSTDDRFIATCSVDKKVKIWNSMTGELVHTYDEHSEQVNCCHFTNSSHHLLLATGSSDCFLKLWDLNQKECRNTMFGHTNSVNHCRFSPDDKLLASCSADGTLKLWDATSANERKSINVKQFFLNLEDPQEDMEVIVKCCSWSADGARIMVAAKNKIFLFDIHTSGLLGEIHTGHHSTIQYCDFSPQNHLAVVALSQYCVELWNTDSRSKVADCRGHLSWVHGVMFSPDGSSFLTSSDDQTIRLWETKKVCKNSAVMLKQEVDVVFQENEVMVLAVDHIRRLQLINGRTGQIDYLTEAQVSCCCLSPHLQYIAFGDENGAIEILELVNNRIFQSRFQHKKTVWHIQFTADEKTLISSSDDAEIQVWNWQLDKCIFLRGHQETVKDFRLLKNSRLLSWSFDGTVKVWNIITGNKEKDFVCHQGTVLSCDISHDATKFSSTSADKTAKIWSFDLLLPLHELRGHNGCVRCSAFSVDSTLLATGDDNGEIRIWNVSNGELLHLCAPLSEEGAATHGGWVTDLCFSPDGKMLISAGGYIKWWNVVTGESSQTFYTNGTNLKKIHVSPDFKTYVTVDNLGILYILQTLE

[4] = target: Tyrosine-protein kinase JAK2 (Homo sapiens, UniProt O60674); format: functional;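 further: JAK2 tested as one member of a kinase panel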
[5] = target: 5'-AMP-activated protein kinase catalytic subunit alpha-1 (Homo sapiens, UniProt Q13131); format: functional
[6] = target: ALK tyrosine kinase receptor (Homo sapiens, UniProt Q9UM73); format: functional;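 further: ALK tested as one member of a kinase panel screen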
[7] = target: Proto-oncogene tyrosine-protein kinase receptor Ret (Homo sapiens, UniProt P07949); format: functional;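 further: measured within a kinome-wide profiling panel, RET as the panel member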
Sequence of Proto-oncogene tyrosine-protein kinase receptor Ret (P07949 whole entry): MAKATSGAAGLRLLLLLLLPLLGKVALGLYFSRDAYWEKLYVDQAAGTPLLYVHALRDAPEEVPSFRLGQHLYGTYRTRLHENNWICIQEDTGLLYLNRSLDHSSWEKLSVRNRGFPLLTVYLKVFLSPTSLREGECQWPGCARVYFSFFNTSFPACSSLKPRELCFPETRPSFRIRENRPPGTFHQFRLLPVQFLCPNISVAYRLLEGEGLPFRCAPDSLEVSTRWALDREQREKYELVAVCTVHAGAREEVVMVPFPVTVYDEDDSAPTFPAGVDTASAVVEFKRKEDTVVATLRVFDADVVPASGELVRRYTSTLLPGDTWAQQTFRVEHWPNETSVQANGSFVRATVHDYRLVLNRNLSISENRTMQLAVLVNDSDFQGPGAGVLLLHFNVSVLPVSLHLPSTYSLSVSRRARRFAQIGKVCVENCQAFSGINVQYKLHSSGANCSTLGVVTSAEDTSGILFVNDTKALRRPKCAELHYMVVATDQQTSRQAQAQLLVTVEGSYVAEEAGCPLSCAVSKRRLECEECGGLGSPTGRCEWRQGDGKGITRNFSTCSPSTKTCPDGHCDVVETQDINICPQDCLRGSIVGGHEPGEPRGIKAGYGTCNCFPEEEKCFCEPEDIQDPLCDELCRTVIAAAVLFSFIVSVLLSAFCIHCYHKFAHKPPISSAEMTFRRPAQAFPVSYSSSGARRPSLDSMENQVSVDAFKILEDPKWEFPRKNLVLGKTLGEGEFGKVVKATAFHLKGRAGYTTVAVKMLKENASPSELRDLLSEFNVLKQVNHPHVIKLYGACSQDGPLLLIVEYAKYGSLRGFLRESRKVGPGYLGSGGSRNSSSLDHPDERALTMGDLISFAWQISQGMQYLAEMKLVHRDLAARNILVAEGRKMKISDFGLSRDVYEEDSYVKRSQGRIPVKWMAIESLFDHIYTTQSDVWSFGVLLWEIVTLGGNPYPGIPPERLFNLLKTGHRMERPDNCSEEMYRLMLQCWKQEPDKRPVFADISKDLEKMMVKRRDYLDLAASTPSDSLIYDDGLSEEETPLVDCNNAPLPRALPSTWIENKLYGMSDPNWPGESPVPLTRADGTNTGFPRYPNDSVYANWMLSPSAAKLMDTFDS

[8] = target: Serine/threonine-protein kinase D3 (Homo sapiens, UniProt O94806); format: functional;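 further: determined within a kinase panel screen, with PRKCN as the panel member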
[9] = target: Death-associated protein kinase 3 (Homo sapiens, UniProt O43293); format: functional;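 further: measured as one member of a kinome-wide profiling panel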
Sequence of Death-associated protein kinase 3 (O43293 whole entry): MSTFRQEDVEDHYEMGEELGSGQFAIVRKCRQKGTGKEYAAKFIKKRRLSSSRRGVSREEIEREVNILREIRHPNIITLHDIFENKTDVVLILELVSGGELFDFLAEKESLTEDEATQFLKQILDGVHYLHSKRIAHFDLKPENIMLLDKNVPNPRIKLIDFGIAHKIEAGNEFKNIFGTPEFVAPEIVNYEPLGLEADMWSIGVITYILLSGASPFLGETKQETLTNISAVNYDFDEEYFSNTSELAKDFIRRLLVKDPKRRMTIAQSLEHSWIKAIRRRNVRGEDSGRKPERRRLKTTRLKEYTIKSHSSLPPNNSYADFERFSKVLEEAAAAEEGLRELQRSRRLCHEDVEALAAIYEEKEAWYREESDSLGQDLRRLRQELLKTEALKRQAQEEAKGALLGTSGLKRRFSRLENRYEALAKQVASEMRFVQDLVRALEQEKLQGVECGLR

[10] = target: Mitogen-activated protein kinase 8 (Homo sapiens, UniProt P45983); format: functional;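 further: value comes from one member of a kinome-wide kinase profiling panel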
[11] = target: Tyrosine-protein kinase BTK (Homo sapiens, UniProt Q06187); format: functional
[12] = target: Serine/threonine-protein kinase PAK 4 (Homo sapiens, UniProt O96013); format: functional;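 further: value obtained within a kinome profiling panel in which PAK4 was one of the panel members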
Sequence of Serine/threonine-protein kinase PAK 4 (O96013 whole entry): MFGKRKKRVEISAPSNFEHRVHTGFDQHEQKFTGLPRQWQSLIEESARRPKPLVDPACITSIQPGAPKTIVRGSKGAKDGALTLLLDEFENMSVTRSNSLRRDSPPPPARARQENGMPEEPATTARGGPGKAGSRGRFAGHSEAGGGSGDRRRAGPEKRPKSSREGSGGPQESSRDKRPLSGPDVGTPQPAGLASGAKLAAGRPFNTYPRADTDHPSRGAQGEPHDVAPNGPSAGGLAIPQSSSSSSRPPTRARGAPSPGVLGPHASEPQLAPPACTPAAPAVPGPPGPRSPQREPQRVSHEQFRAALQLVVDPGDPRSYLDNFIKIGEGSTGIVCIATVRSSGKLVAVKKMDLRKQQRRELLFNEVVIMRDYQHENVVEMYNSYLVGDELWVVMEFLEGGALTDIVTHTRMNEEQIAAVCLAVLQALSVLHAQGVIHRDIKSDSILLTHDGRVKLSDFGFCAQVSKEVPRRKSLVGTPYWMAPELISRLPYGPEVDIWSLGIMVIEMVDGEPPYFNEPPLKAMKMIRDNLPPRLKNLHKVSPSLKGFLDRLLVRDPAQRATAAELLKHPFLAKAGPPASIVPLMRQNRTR

[13] = target: Fibroblast growth factor receptor 1 (Homo sapiens, UniProt P11362); format: functional
Sequence of Fibroblast growth factor receptor 1 (P11362 whole entry): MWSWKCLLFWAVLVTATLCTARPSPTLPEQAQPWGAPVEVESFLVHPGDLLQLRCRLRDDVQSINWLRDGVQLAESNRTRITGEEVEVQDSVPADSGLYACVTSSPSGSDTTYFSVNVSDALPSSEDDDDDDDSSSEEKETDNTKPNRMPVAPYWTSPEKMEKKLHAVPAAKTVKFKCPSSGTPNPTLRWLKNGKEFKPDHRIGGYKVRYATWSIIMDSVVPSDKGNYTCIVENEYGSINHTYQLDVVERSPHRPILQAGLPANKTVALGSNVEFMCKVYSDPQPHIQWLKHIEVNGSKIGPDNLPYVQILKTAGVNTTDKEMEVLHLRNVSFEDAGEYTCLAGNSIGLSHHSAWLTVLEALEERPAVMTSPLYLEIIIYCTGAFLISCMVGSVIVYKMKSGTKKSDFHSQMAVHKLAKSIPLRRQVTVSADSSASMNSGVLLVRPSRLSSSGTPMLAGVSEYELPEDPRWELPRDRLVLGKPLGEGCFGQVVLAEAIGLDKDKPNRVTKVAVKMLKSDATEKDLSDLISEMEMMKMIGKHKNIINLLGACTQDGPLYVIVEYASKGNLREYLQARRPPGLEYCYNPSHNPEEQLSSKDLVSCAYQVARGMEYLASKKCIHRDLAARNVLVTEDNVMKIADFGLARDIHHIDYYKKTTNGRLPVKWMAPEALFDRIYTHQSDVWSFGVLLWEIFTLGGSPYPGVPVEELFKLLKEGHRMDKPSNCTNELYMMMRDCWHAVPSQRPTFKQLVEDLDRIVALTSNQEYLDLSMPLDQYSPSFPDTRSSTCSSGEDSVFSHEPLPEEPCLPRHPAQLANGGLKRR

[14] = target: MAP/microtubule affinity-regulating kinase 3 (Homo sapiens, UniProt P27448); format: functional;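 further: MARK3 affinity measured as one member of a kinome panel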
[15] = target: Hepatocyte growth factor receptor (Homo sapiens, UniProt P08581); format: functional;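 further: kinase panel profiling across the kinome, with MET as the panel member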
Sequence of Hepatocyte growth factor receptor (P08581 whole entry): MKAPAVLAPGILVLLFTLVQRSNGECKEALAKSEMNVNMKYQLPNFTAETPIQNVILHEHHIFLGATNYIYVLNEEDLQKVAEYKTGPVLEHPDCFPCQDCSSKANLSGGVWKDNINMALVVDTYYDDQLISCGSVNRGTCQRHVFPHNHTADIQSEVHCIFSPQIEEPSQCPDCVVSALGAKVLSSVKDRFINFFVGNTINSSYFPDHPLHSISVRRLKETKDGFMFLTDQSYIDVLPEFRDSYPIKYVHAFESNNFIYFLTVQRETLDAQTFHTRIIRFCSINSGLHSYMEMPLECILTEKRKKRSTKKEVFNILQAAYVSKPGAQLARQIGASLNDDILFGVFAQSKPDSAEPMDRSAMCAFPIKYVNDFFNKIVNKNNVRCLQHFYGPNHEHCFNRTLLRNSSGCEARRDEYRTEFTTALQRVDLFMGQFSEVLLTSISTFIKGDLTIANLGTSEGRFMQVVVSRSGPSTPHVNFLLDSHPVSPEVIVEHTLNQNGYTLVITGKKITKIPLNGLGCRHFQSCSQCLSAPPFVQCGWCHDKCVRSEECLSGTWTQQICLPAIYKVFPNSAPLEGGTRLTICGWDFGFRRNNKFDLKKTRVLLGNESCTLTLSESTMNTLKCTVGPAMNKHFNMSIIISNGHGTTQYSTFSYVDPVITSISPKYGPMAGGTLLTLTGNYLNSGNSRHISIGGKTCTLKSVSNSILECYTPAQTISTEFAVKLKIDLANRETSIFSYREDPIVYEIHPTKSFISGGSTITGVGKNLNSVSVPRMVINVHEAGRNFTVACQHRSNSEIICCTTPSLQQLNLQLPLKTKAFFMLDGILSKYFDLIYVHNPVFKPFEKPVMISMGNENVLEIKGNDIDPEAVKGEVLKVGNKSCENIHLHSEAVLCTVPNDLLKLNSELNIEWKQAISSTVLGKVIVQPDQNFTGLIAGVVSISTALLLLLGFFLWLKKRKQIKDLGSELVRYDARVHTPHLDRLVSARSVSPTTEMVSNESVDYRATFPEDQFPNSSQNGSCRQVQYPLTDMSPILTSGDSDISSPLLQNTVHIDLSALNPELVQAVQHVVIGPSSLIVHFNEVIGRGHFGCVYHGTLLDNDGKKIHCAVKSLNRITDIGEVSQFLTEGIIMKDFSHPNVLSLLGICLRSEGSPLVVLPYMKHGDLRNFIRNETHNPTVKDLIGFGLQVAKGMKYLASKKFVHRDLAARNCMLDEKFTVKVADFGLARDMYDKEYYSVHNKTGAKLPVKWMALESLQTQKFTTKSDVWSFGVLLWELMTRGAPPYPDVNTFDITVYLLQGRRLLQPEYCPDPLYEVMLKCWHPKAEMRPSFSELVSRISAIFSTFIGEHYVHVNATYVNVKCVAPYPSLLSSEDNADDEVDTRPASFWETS

[16] = target: Vascular endothelial growth factor receptor 2 (Homo sapiens, UniProt P35968); format: functional
[17] = target: Insulin-like growth factor 1 receptor (Homo sapiens, UniProt P08069); assay: Navigating the Kinome. Panel member name: IGF1R; format: functional
[18] = target: Mitogen-activated protein kinase kinase kinase kinase 4 (Homo sapiens, UniProt O95819); format: functional

SMILES | EC50 (Streptokinase A) | IC50 [1] | IC50 [2] | IC50 [3] | Ki [4] | Ki [5] | Ki [6] | Ki [7] | Ki [8] | Ki [9] | Ki [10] | Ki [11] | Ki [12] | Ki [13] | Ki [14] | Ki [15] | Ki [16] | Ki [17] | Ki [18]
Cc1cc(C)c[n+](C2=C([N-]S(=O)(=O)c3cccs3)C(=O)c3ccccc3C2=O)c1 | > 150 µM (not active) | > 80 µM (inactive) | 33.4 µM (active) |  |  |  |  |  |  |  |  |  |  |  |  |  |  |  | 
CCCCCCCCCCC[N+](C)(C)CC/C=C1/c2ccccc2Sc2ccc(Cl)cc21 | 8.22 µM (active) |  |  | 11.6 µM (active) |  |  |  |  |  |  |  |  |  |  |  |  |  |  | 
CCn1c(-c2nonc2N)nc2cncc(C(=O)N3CCC(N)C3)c21 (stereo not drawn) |  |  |  |  | > 2.51 µM (inactive) | > 3.16 µM (inactive) | > 6.31 µM (inactive) | > 3.16 µM (inactive) | 0.631 µM (active) | 0.0794 µM (active) | > 5.01 µM (inactive) | > 6.31 µM (inactive) | > 5.01 µM (inactive) | > 3.98 µM (inactive) | 2 µM (active) | > 2.51 µM (inactive) | > 2 µM (inactive) | > 2.51 µM (inactive) | > 3.16 µM (inactive)
Cc1[nH]nc2ccc(-c3cncc(OCC(N)Cc4c[nH]c5ccccc45)c3)cc12 (stereo not drawn) |  |  |  |  | > 1.58 µM (inactive) | 0.158 µM (active) | > 1.26 µM (inactive) | > 1.26 µM (inactive) | 0.00501 µM (active) | 0.1 µM (active) | 1.58 µM (active) | > 1.26 µM (inactive) | 1.58 µM (active) | 3.16 µM (active) | 0.398 µM (active) | > 3.16 µM (inactive) | 3.98 µM (active) | > 2 µM (inactive) | 0.0501 µM (active)
COC(=O)c1ccccc1NC1=C/C(=N\S(=O)(=O)c2cccs2)c2ccccc2C1=O |  | 27.2 µM (inactive) | 41.2 µM (active) | 1.82 µM (active) |  |  |  |  |  |  |  |  |  |  |  |  |  |  | 
